pKi: −log10 of the molar value. Like-named read-outs stand apart in the source and are kept apart here.
Tests used:
[1] = target: T1, Aurora-2 (Aurora A) (Homo sapiens, UniProt O14965); assay: Aurora-2 (Aurora A) inhibition assay, coupled enzyme; type: biochemical
T1 sequence (O14965 1-403): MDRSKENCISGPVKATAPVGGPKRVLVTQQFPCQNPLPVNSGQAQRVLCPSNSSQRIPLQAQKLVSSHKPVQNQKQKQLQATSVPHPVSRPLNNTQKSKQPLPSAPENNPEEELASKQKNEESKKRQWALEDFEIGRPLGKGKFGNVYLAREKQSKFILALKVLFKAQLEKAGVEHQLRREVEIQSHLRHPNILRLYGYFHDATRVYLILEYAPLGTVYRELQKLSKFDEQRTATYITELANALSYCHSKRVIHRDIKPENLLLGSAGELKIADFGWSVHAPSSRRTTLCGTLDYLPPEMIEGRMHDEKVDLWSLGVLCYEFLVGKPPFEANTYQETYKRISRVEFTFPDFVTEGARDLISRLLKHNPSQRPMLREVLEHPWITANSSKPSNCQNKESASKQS
Experimental: Assays were carried out in a mixture of 100 mM Hepes (pH7.5), 10 mM MgCl2, 1 mM DTT, 25 mM NaCl, 2.5 mM phosphoenolpyruvate, 300 μM NADH, 30 μg/ml pyruvate kinase and 10 μg/ml lactate dehydrogenase. […] Assays were carried out at 30° C. and in the presence of 40 nM Aurora-2.
An assay stock buffer solution was prepared containing all of the reagents listed above, with the exception of Aurora-2 and the test compound of interest. […] The plate was preincubated for 10 minutes at 30° C. and the reaction initiated by addition of 10 μl of Aurora-2. Initial reaction rates were determined with a Molecular Devices SpectraMax Plus plate reader over a 10 minute time course. IC50 and Ki data were calculated from non-linear regression analysis using the Prism software package (GraphPad Prism version 3.0cx for Macintosh, GraphPad Software, San Diego Calif., USA).

[2] = target: T2, FLT-3 (Homo sapiens, UniProt P36888); assay: FLT-3 inhibition assay, radiometric filter-binding; type: biochemical
T2 sequence (P36888 27-993): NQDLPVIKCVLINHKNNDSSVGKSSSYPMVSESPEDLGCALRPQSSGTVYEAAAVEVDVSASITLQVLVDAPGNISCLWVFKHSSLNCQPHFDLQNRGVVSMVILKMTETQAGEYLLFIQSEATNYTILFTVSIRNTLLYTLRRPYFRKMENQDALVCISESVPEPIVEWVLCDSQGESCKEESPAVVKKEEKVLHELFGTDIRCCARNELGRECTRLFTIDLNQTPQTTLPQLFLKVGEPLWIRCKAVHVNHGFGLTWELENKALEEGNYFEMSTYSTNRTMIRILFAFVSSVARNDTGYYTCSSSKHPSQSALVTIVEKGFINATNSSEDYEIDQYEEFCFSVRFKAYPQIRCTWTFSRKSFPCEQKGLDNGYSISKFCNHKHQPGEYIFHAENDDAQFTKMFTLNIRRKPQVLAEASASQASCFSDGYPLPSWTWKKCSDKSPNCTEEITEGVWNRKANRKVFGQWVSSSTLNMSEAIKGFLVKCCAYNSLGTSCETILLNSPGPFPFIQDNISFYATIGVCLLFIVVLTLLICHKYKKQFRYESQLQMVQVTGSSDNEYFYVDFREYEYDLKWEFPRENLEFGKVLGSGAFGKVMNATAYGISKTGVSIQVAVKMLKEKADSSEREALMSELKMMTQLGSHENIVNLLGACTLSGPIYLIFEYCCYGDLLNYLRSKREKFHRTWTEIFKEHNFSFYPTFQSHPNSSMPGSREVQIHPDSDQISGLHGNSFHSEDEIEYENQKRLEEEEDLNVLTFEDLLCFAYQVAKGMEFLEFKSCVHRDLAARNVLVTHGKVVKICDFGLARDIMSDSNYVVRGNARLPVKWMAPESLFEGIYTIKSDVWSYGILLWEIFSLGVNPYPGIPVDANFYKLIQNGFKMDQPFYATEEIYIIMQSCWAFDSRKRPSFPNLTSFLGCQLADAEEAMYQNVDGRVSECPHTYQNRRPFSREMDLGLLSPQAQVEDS
Experimental: This assay monitors the 33P incorporation into a substrate poly(Glu, Tyr) 4:1 (pE4Y). […] Final substrate concentrations in the assay were 90 μM ATP and 0.5 mg/ml pE4Y (both from Sigma Chemicals, St Louis, Mo.). […] Reactions were carried out at room temperature.
Two assay solutions were prepared. Solution 1 contains 100 mM HEPES (pH 7.5), 10 mM MgCl2, 25 mM NaCl, 1 mg/ml pE4Y and […] (containing 0.3 mCi of [γ-33^P]ATP for each reaction). Solution 2 contains 100 mM HEPES (pH 7.5), 10 mM MgCl2, 25 mM NaCl, 2 mM DTT, 0.02% BSA and 3 nM FLT-3. The assay was run on a 96 well plate by mixing 50 μl each of Solution 1 and […] of the compounds of the present invention. The reaction was initiated with Solution 2. […] All of the reaction volume was then transferred to a filter plate and washed with 5% TCA by a Harvester 9600 from TOMTEC (Hamden, Conn.). The amount of ^33P incorporation into pE4y was analyzed by a Packard Top Count Microplate Scintillation Counter (Meriden, Conn.). The data was fitted using Prism software to get an IC50 or Ki.

[3] = 400 μM ATP, 570 μM Kemptide, 30° C., 40 nM Aurora-2, read-out: Aurora A Ki
[4] = 90 μM ATP, 0.5 mg/ml pE4Y, room temperature, read-out: FLT-3 Ki

| Compound | pKi [1] | pKi [2] | pKi [1, 3] | pKi [2, 4] |
| --- | --- | --- | --- | --- |
| COc1ccccc1C(=O)Nc1ccc(Sc2nc(Nc3cc(C)[nH]n3)cc(N3CCC3)n2)cc1 [Compound I-6] | 8.52 | 6.92 | – | – |
| Cc1cc(Nc2cc(N3CCC3)nc(Sc3ccc(NC(=O)c4ccccc4C(F)F)cc3)n2)[nH]n1 [Compound I-19] | – | – | 8.92 | 6.80 |
| Cc1cc(Nc2cc(N3CCC3)nc(Sc3ccc(NC(=O)c4cc(Cl)ccc4Cl)cc3)n2)n[nH]1 [Compound I-21] | – | 6.26 | 9.11 | – |
| Cc1cccc(C(=O)Nc2ccc(Sc3nc(Nc4cc(C)[nH]n4)cc(N4CCC4)n3)cc2)c1 [Compound I-4] | 8.60 | 6.48 | – | – |
| Cc1cc(Nc2cc(N3CCC3)nc(Sc3ccc(NC(=O)c4ccccc4C(F)(F)F)cc3)n2)[nH]n1 [Compound I-14] | – | – | 9.42 | 6.77 |
| CCc1cccc(C(=O)Nc2ccc(Sc3nc(Nc4cc(C)[nH]n4)cc(N4CCC4)n3)cc2)c1Cl [Compound I-22] | > 9.46 | 6.72 | – | – |
| Cc1cc(Nc2cc(N3CCC3)nc(Sc3ccc(NC(=O)c4cccc(Cl)c4F)cc3)n2)n[nH]1 [Compound I-15] | 9.12 | 6.80 | – | – |
| Cc1cc(Nc2cc(N3CCC3)nc(Sc3ccc(NC(=O)c4c(F)cccc4F)cc3)n2)[nH]n1 [Compound I-2, N-{4-[4-Azetidin-1-yl-6-(5-methyl-2H-pyrazol-3-ylamino)-pyrimidin-2-ylsulfanyl]-phenyl}-2,6-Difluoro-benzamide] | – | – | 8.72 | 6.74 |
| Cc1cc(Nc2cc(N3CCC3)nc(Sc3ccc(NC(=O)c4cccc(C)c4Cl)cc3)n2)n[nH]1 [Compound I-20] | 9.11 | 6.62 | – | – |
| Cc1cc(Nc2cc(N3CCC3)nc(Sc3ccc(NC(=O)c4c(Cl)cccc4Cl)cc3)n2)n[nH]1 [Compound I-11] | 9.15 | 6.96 | – | – |
| Cc1cc(Nc2cc(N3CCC3)nc(Sc3ccc(NC(=O)c4cccc(C(F)(F)F)c4F)cc3)n2)n[nH]1 [Compound I-13] | 9.46 | 6.46 | – | – |
| Cc1cc(Nc2cc(N3CCC3)nc(Sc3ccc(NC(=O)c4ccccc4C)cc3)n2)[nH]n1 [Compound I-5] | – | – | 9.06 | 7.15 |
| Cc1cc(Nc2cc(N3CCC3)nc(Sc3ccc(NC(=O)c4ccccc4OC(F)(F)F)cc3)n2)[nH]n1 [Compound I-8] | 9.17 | 6.77 | – | – |
| Cc1cc(Nc2cc(N3CCC3)nc(Sc3ccc(NC(=O)c4cccc(Cl)c4)cc3)n2)n[nH]1 [Compound I-12] | 8.85 | 6.27 | – | – |
| Cc1cc(Nc2cc(N3CCC3)nc(Sc3ccc(NC(=O)c4ccccc4Cl)cc3)n2)[nH]n1 [Compound I-1, N-{4-[4-Azetidin-1-yl-6-(5-methyl-2H-pyrazol-3-ylamino)-pyrimidin-2-ylsulfanyl]-phenyl}-2-chloro-benzamide] | – | – | 9.00 | 7.00 |
| Cc1cc(Nc2cc(N3CCC3)nc(Sc3ccc(NC(=O)c4ccccc4F)cc3)n2)[nH]n1 [Compound I-3] | – | – | 8.66 | 6.66 |
| O=C(Nc1ccc(Sc2nc(Nc3cc(C4CC4)[nH]n3)cc(N3CCC3)n2)cc1)c1ccccc1Cl [Compound I-17] | – | 7.00 | 9.19 | – |

Source: patent US8557833B2, “Aminopyrimidines useful as kinase inhibitors” (priority 2005, dated 2013)
